Data from patent US20220142941A1, “COMBINATION THERAPEUTIC REGIMENS WITH 1,6-DIBROMO-1,6-DIDEOXY-DULCITOL” (Eleison Pharmaceuticals LLC, priority 2019, published 2022).
Where two headings read alike, the source gives them in different places.

Tests used:
T98 glioma cell line = assay: Cell Titer-Glo viability, DBD concentration range; assay type: cell-based, human; settings: 5 and 8 days
Procedure: (§1) These lines were seeded in triplicate in a 96-wells plate, in a dilution of 500 cells/well. […] FIGS. 1 and 2 show the histogram results of the two used glioma cell lines, T98 and U373. Specifically, the histograms are normalized in percentages, where the non-treated cells have a 100% survival. […] However, a concentration range between 1 and 100 μM was selected and was next tested on twenty patient-derived serum-free cell cultures.

U373 glioma cell line = assay: Cell Titer-Glo viability, DBD concentration range; assay type: cell-based, human; settings: 5 and 8 days
Procedure: as §1

[1] = Kellner et al., Nature (1967); cited from earlier work
GS365 = assay: DBD dose-response IC50, patient derived GSC culture; assay type: cell-based; settings: Homo sapiens
Procedure: (§2) To assess the effects of crystalline DBD polymorph on the growth of patient derived GSC's (Glioma serum-free Stem-cell like cultures), dose-response assays were performed on twenty cultures. […] A dose-dependent decrease in viability was found, and the IC50 values of could be calculated using linear regression analysis. Specifically, looking at Table 1, a high variation of different IC50 values is seen in this panel of patient derived GSC's. In addition, no correlation is seen between the MGMT promotor methylation status and the amount of the IC50 value.

GS279core = assay: as above; assay type: cell-based; settings: Homo sapiens, 120 h, read-out: IC50 5 d
Procedure: as §2

GS359 = assay: as above; assay type: cell-based; settings: Homo sapiens
Procedure: as §2

GS186peri = assay: as above; assay type: cell-based; settings: Homo sapiens
Procedure: as §2

GS245 = assay: as above; assay type: cell-based; settings: Homo sapiens
Procedure: as §2

GS289 = assay: as above; assay type: cell-based; settings: Homo sapiens
Procedure: as §2

GS257 = assay: as above; assay type: cell-based; settings: Homo sapiens
Procedure: as §2

GS102peri = assay: as above; assay type: cell-based; settings: Homo sapiens
Procedure: as §2

GS261 = assay: as above; assay type: cell-based; settings: Homo sapiens
Procedure: as §2

GS186core = assay: as above; assay type: cell-based; settings: Homo sapiens
Procedure: as §2

GS224 = assay: as above; assay type: cell-based; settings: Homo sapiens
Procedure: as §2

GS104peri = assay: as above; assay type: cell-based; settings: Homo sapiens
Procedure: as §2

GS323peri = assay: as above; assay type: cell-based; settings: Homo sapiens, 120 h, passage 17, day 5, read-out: IC50 5 d
Procedure: as §2

GS324core = assay: as above; assay type: cell-based; settings: Homo sapiens
Procedure: as §2

GS279peri = assay: as above; assay type: cell-based; settings: Homo sapiens
Procedure: as §2

GS281 = assay: as above; assay type: cell-based; settings: Homo sapiens
Procedure: as §2

GS304 = assay: as above; assay type: cell-based; settings: Homo sapiens
Procedure: as §2

GS249 = assay: as above; assay type: cell-based; settings: Homo sapiens
Procedure: as §2

GS203 = assay: as above; assay type: cell-based; settings: Homo sapiens
Procedure: as §2

GS184 = assay: as above; assay type: cell-based; settings: Homo sapiens
Procedure: as §2

[2] = tested on: panel of 20 patient derived cell cultures; assay: DBD combination treatment, overall result over the panel; assay type: cell-based, human
Procedure: Crystalline DBD polymorph treatment was combined with chemotherapy, radiotherapy and targeted inhibitors to determine whether the crystalline DBD polymorph form could: enhance efficacy of the conventional therapies; enhance efficacy when combined with newer ‘targeted’ therapies; or would make (a subset of) cultures more sensitive to this treatment.
Therefore, cultures were treated with: • a.

[3] = reported in the literature; cited from earlier work
[4] = 120 h, passage 14, day 5, read-out: IC50 5 d
[5] = passage 14, day 8, read-out: IC50 8 d

SMILES: O[C@H]([C@H](O)[C@@H](O)CBr)[C@H](O)CBr [DBD, 1,6-dibromo-1,6-dideoxy-dulcitol]
- effect on cell viability (percentage of living cells vs non-treated) (T98 glioma cell line; 0.1 μM and 0.3 μM DBD): not effective
- effect on cell viability (percentage of living cells vs non-treated) (T98 glioma cell line; 300 μM DBD): not viable
- effect on cell viability (percentage of living cells vs non-treated) (U373 glioma cell line; 0.1 μM and 0.3 μM DBD): not effective
- effect on cell viability (percentage of living cells vs non-treated) (U373 glioma cell line; 300 μM DBD): not viable
- antitumor effect [1]: selective a vigorous antitumor effect
- IC50 (GS365; 120 h, GS365, passage 14, day 5, read-out: IC50 5 d): 14.6 µM
- IC50 (GS365; GS365, passage 14, day 8, read-out: IC50 8 d): 5.69 µM
- IC50 (GS279core; GS279core (1), passage 13, day 5): 3.6 µM
- IC50 (GS279core; GS279core (2), passage 16, day 5): 7.64 µM
- IC50 (GS359; 120 h, GS359, passage 14, day 5, read-out: IC50 5 d): 11.8 µM
- IC50 (GS359; GS359, passage 14, day 8, read-out: IC50 8 d): 7.27 µM
- IC50 (GS186peri; [4]): 4.24 µM
- IC50 (GS186peri; [5]): 2.28 µM
- IC50 (GS245; 120 h, GS245, passage 13, day 5, read-out: IC50 5 d): 6.58 µM
- IC50 (GS245; GS245, passage 13, day 8, read-out: IC50 8 d): 3.35 µM
- IC50 (GS289; 120 h, GS289, passage 13, day 5, read-out: IC50 5 d): 6.88 µM
- IC50 (GS289; GS289, passage 13, day 8, read-out: IC50 8 d): 3.22 µM
- IC50 (GS257; 120 h, GS257, passage 13, day 5, read-out: IC50 5 d): 11.9 µM
- IC50 (GS257; GS257, passage 13, day 8, read-out: IC50 8 d): 10.2 µM
- IC50 (GS102peri; 120 h, passage 18, day 5, read-out: IC50 5 d): 41.8 µM
- IC50 (GS102peri; passage 18, day 8, read-out: IC50 8 d): 11.9 µM
- IC50 (GS261; 120 h, GS261, passage 11, day 5, read-out: IC50 5 d): 3.44 µM
- IC50 (GS261; GS261, passage 11, day 8, read-out: IC50 8 d): 1.85 µM
- IC50 (GS186core; [4]): 4.56 µM
- IC50 (GS186core; [5]): 1.94 µM
- IC50 (GS224; 120 h, GS224, passage 17, day 5, read-out: IC50 5 d): 33.3 µM
- IC50 (GS224; GS224, passage 17, day 8, read-out: IC50 8 d): 10.9 µM
- IC50 (GS104peri; 120 h, passage 22, day 5, read-out: IC50 5 d): 3.48 µM
- IC50 (GS104peri; passage 22, day 8, read-out: IC50 8 d): 0.57 µM
- IC50 (GS323peri): 4.75 µM
- IC50 (GS324core; 120 h, passage 16, day 5, read-out: IC50 5 d): 8.96 µM
- IC50 (GS324core; passage 16, day 8, read-out: IC50 8 d): 2.98 µM
- IC50 (GS279peri; 120 h, passage 13, day 5, read-out: IC50 5 d): 31.5 µM
- IC50 (GS279peri; passage 13, day 8, read-out: IC50 8 d): 8.33 µM
- IC50 (GS281; 120 h, GS281, passage 13, day 5, read-out: IC50 5 d): 10.6 µM
- IC50 (GS281; GS281, passage 13, day 8, read-out: IC50 8 d): 5.55 µM
- IC50 (GS304; 120 h, GS304, passage 14, day 5, read-out: IC50 5 d): 106 µM
- IC50 (GS304; GS304, passage 14, day 8, read-out: IC50 8 d): 12.2 µM
- IC50 (GS249; 120 h, GS249, passage 18, day 5, read-out: IC50 5 d): 0.63 µM
- IC50 (GS249; GS249, passage 18, day 8, read-out: IC50 8 d): 0.24 µM
- IC50 (GS203; 120 h, GS203, passage 20, day 5, read-out: IC50 5 d): 28.7 µM
- IC50 (GS203; GS203, passage 20, day 8, read-out: IC50 8 d): 10.5 µM
- IC50 (GS184; 120 h, GS184, passage 15, day 5, read-out: IC50 5 d): 18.6 µM
- IC50 (GS184; GS184, passage 15, day 8, read-out: IC50 8 d): 1.96 µM
- enhancement of the cytotoxic effect ([2]; combined with radiation treatment): 30%
- enhancement of the cytotoxic effect ([2]; combined with temozolomide): 50%
- solubility [3]: poorly soluble
